Drawing on patent US8410141B2, “Insecticidal arylpyrrolines” (Bayer Cropscience AG, priority 2009, dated 2013), this text covers insecticidal activity, acaricidal activity rate and mortality for 17 molecules.

What all share (type): in vivo
The test system of series [1] is Tobacco Cutworm (Spodoptera litura) Larvae. The series can be described thus: Test against tobacco cutworm (Spodoptera litura) larvae, leaf immersion. Particulars: 100 ppm; sweet potato leaves immersed; third-instar larvae; after 7 days. The procedure:
(§1) Unless not mentioned otherwise, the test solutions were prepared as follows:
(§2) Containing as solvent: Dimethylformamide, 3 parts by weight; and as emulsifier: Polyoxyethylene alkyl phenyl ether, 1 part by weight. To prepare the test solution, 1 part by weight of an active compound is mixed with the above-mentioned amount of solvent containing the above-mentioned amount of emulsifier, and the mixture is diluted with water to the desired concentration.
The leaves of sweet potato were immersed in the test solution at the appropriate concentration, and the leaves were dried in air. The leaves were then placed in a petri dish having a diameter of 9 cm, and ten third-instar larvae of tobacco cutworm were released therein. The petri dish was placed in a temperature-controlled chamber at 25° C. After 2 days and 4 days sweet potato leaves were additionally added. After 7 days, the number of dead larvae was counted to calculate the insecticidal activity. An insecticidal activity of 100% means that all larvae were killed, whereas an insecticidal activity of 0% means that no larva was killed. In the current test, the results of two petri dishes for each partition were averaged.

For series [2], the system named is Two-Spotted Spider Mite (Tetranychus urticae). The series can be described thus: Test against two-spotted spider mite (Tetranychus urticae), spray. Particulars: 100 ppm; sprayed on kidney bean; adult mites; after 7 days. The protocol: as §1, §2
50 to 100 adult two-spotted spider mites were inoculated onto the leaves of kidney beans at the two-true leaf stage, which plant had been cultivated in a pot having a diameter of 6 cm. After one day, test solution at the appropriate concentration was sprayed thereon in a sufficient amount using a spray gun. After the spraying, the plant pot was placed inside a greenhouse, and after 7 days, the acaricidal activity was calculated. An acaricidal activity of 100% means that all mites were killed, whereas an acaricidal activity of 0% means that no mite was killed.

Series [3] has as its system Cucurbit Leaf Beetle (Aulacophora femoralis). The series can be described thus: Test against cucurbit leaf beetle (Aulacophora femoralis), leaf immersion. Conditions: 100 ppm; cucumber leaves immersed; second-instar larvae; after 7 days. The protocol: as §1, §2
Cucumber leaves were immersed in the test solution at the appropriate concentration, and the leaves were dried in air. The leaves were then placed in a plastic cup containing sterilized black soil, and five second-instar larvae of cucurbit leaf beetle were released therein. The plastic cup was placed in a temperature-controlled chamber at 25° C. After 7 days, the number of dead larvae was counted, and thus the insecticidal activity was calculated. An insecticidal activity of 100% means that all beetles were killed, whereas an insecticidal activity of 0% means that no beetle was killed.

In series [4] the test system is adult engorged female Boophilus microplus ticks. The series can be described thus: Boophilus microplus (dip). Particulars: 100 ppm; ticks immersed one minute; after 7 days. The protocol: Solvent: Dimethylsulfoxid
To produce a suitable preparation of active compound, 10 mg of active compound are dissolved in 0.5 ml solvent, and the concentrate is diluted with water to the desired concentration. Eight to ten adult engorged female Boophilus microplus ticks are placed in perforated plastic beakers and immersed in aqueous compound solution for one minute. Ticks are transferred to a filter paper in a plastic tray. Egg deposition of fertile eggs is monitored after. After 7 days mortality in % is determined. 100% means that all the ticks have been killed; 0% means that none of the ticks have been killed.

Series [5] concerns Tobacco Cutworm (Spodoptera litura) Larvae. The series is described as follows: Test against tobacco cutworm larvae, root systemicity. Conditions: 100 ppm; broccoli seedling roots dipped 3 days; second-instar larvae; after 4 days. The protocol:
as §1, §2
The roots of seedling of broccoli at 1.2 leaf stage were dipped into the test solution at the appropriate concentration. After 3 days, the leaves were cut and placed in a petri dish having a diameter of 9 cm. And then five second-instar larvae of tobacco cutworm were released therein. The petri dish was placed in a temperature-controlled room at 25° C. After 4 days, the number of dead larvae was counted, to calculate the insecticidal activity. An insecticidal activity of 100% means that all larvae were killed, whereas an insecticidal activity of 0% means that no larva was killed.

Series [6] has as its system Musca domestica. The series can be described thus: Musca domestica test. Conditions: 100 ppm; sponge with sugar and compound solution; adults; after 2 days. The procedure:
(§3) Solvent: dimethyl sulfoxide
To produce a suitable preparation of active compound, 10 mg of active compound are dissolved in 0.5 ml solvent, and the concentrate is diluted with water to the desired concentration. Prior to the assay, a piece of kitchen sponge is soaked with a mixture of sugar and compound solution and placed into a container. 10 adults (Musca domestica) are placed into the container and closed with a perforated lid. After 2 days mortality in % is determined. 100% means that all the flies have been killed; 0% means that none of the flies have been killed.

Series [7] concerns Ctenocephalides felis. The series can be described thus: Ctenocephalides felis test (CTECFE). Conditions: 100 ppm in cattle blood; adult unfed fleas; after 2 days. The procedure: as §3
To produce a suitable preparation of active compound, 10 mg of active compound are dissolved in 0.5 ml solvent, and the concentrate is diluted with cattle blood to the desired concentration. Approximately 20 adult unfed (Ctenocepahlides felis) are placed in flea chambers. The blood chamber, sealed with parafilm on the bottom, are filled with cattle blood supplied with compound solution and placed on top of the flea chamber, so that the fleas are able to suck the blood. The blood chamber is heated to 37° C. whereas the flea chamber is kept at room temperature. After 2 days mortality in % is determined. 100% means that all the fleas have been killed; 0% means that none of the fleas have been killed.

The test system of series [8] is Nymphs of the tick Amblyomma hebraeum. The series is described as follows: Amblyomma hebraeum test (AMBYHE). Particulars: 100 ppm; nymphs immersed one minute; after 42 days. The procedure:
as §3
To produce a suitable preparation of active compound, 10 mg of active compound are dissolved in 0.5 ml solvent, and the concentrate is diluted with water to the desired concentration. Nymphs of the tick Amblyomma hebraeum are placed in perforated plastic beakers and immersed in aqueous compound solution for one minute. Ticks are transferred to a filter paper in a petri dish and incubated in a climate chamber for 42 days.
After 42 days mortality in % is determined. 100% means that all the ticks have been killed; 0% means that none of the ticks have been killed.

In series [9] the test system is Tobacco Cutworm (Spodoptera litura) Larvae. The series can be described thus: Test against tobacco cutworm larvae, systemic test by soil drench. Conditions: 250 ppm, 20 ml soil drench on potted broccoli, leaves cut after 7 days, third-instar larvae. The protocol:
as §1, §2
20 ml of the test solution at the appropriate concentration was treated on the soil surface of potted broccoli seedling at 2 to 3 leaf stage. After 7 days, the leaves were cut and placed in a petri dish having a diameter of 9 cm. And then ten third-instar larvae of tobacco cutworm were released therein. The petri dish was placed in a temperature-controlled room at 25° C. After 7 days, the number of dead larvae was counted to calculate the insecticidal activity. An insecticidal activity of 100% means that all larvae were killed, whereas an insecticidal activity of 0% means that no larva was killed. […] The comparative compound A is No. 1-72 in WO2009/097992.

As to `N#Cc1cc(C2=NCC(c3cc(Cl)c(Cl)c(Cl)c3)(C(F)(F)F)C2)cnc1-n1cncn1` (stereo not drawn) [1-52], the insecticidal activity in series [1] and in [3] was 100% each time. Besides, the acaricidal activity rate in [2] was determined as 100%. The same molecule came in with a mortality in [4] of 90%.
As to `N#Cc1cc(C2=NCC(c3cc(Cl)nc(Cl)c3)(C(F)(F)F)C2)cnc1-n1cncn1` (stereo not drawn) [1-66], the insecticidal activity in series [1], in series [3] and in [5] was 100% each time. Also, the mortality in [6] amounted to 80%.
As for `N#Cc1cc(C2=NCC(c3cccc(C(F)(F)F)n3)(C(F)(F)F)C2)ccc1-n1cncn1` (stereo not drawn) [1-126], the insecticidal activity in series [1], in series [3] and in series [5] was 100% in each case. Besides, the mortality in [7] and in [6] was 90% each time.
Turning to `N#Cc1cc(C2=NCC(c3cncc(Cl)c3)(C(F)(F)F)C2)ccc1-n1cncn1` (stereo not drawn) [1-480], the acaricidal activity rate in [2] was 100%. In [3], this molecule registered an insecticidal activity of 100%. The same molecule returned a mortality in [7] of 90%.
Consider `N#Cc1cc(C2=NCC(c3cccc(OC(F)F)c3)(C(F)(F)F)C2)ccc1-n1cncn1` (stereo not drawn) [1-483], for which, in series [2], the acaricidal activity rate is recorded as 100%. In [3], the insecticidal activity is on record as 100%. For the same molecule, the mortality in series [7] is given as 90%.
For the molecule `Fc1cc(C2=NCC(c3cc(Cl)c(Cl)c(Cl)c3)(C(F)(F)F)C2)ccc1-n1cncn1` (stereo not drawn) [1-29], the insecticidal activity in [1] and in series [3] was 100% each time. In series [4], this molecule gave a mortality of 95%.
`FC(F)(F)C1(c2cc(Cl)c(Cl)c(Cl)c2)CN=C(c2ccc(-n3cncn3)c(Cl)c2)C1` (stereo not drawn) [1-30]: the insecticidal activity in series [1] and in [3] was 100% each time. Besides, the acaricidal activity rate in series [2] is 100%. In series [7], this molecule displayed a mortality of 90%.
Take `N#Cc1cc(C2=NCC(c3cc(Cl)c(F)c(Cl)c3)(C(F)(F)F)C2)ccc1-n1cncn1` (stereo not drawn) [1-13]: the insecticidal activity in [1], in series [3] and in [5] was 100% each time. Besides, in series [2], the acaricidal activity rate was determined as 100%. In [8], this molecule displayed a mortality of 100%.
With `N#Cc1cc(C2=NCC(c3cc(Cl)c(F)c(Cl)c3F)(C(F)(F)F)C2)ccc1-n1cncn1` (stereo not drawn) [1-20], the insecticidal activity in series [1], in series [3] and in series [5] was 100% each time. The molecule further registered an acaricidal activity rate in [2] of 100%. The same molecule gave a mortality in series [8] of 100%.
Take `N#Cc1cc(C2=NCC(c3cc(OC(F)F)cc(OC(F)F)c3)(C(F)(F)F)C2)ccc1-n1cncn1` (stereo not drawn) [1-485]: the insecticidal activity in series [1], in [3] and in [5] was 100% in each case. Moreover, in series [2], the acaricidal activity rate is recorded as 100%. This molecule also displayed a mortality in [4] of 90%.
In the case of `N#Cc1cc(C2=NCC(c3cc(Cl)cc(C(F)(F)F)c3)(C(F)(F)F)C2)ccc1-n1cncn1` (stereo not drawn) [1-10], the insecticidal activity in series [1], in series [3] and in [5] was 100% throughout. Also, the acaricidal activity rate in series [2] is 100%. In series [8], this molecule returned a mortality of 100%.
On to `FC(F)(F)C1(c2cc(Cl)nc(Cl)c2)CN=C(c2ccc(-n3cncn3)cc2)C1` (stereo not drawn) [1-2], for which the insecticidal activity in series [1], in [3] and in series [5] was 100% each time. The molecule also registered an acaricidal activity rate in [2] of 100%. Besides, the mortality in series [6] worked out at 90%.
Regarding `N#Cc1cc(C2=NCC(c3ccnc(C(F)(F)F)c3)(C(F)(F)F)C2)ccc1-n1cncn1` (stereo not drawn) [1-21], the insecticidal activity in [1], in series [3], in [5] and in series [9] was 100% in each case. The molecule also had an acaricidal activity rate in series [2] of 100%. This molecule showed a mortality in [6] of 80%.
In the case of `N#Cc1cc(C2=NCC(c3cc(C(F)(F)F)cc(Cl)n3)(C(F)(F)F)C2)ccc1-n1cncn1` (stereo not drawn) [1-84], the insecticidal activity in [1], in series [3] and in series [5] was 100% in each case. This molecule also had an acaricidal activity rate in [2] of 100%.
As to `O=C(CC(F)(F)F)NCc1ccc(C2=NCC(c3cc(C(F)(F)F)cc(C(F)(F)F)c3)(C(F)(F)F)C2)cc1` (stereo not drawn) [2-648], the insecticidal activity in [1], in [3] and in series [5] was 100% in each case. Further, the acaricidal activity rate in series [2] is 100%.
`N#Cc1cc(C2=NCC(c3cc(Cl)c([N+](=O)[O-])c(Cl)c3)(C(F)(F)F)C2)ccc1-n1cncn1` (stereo not drawn) [1-489] showed an insecticidal activity in series [1] of 100%. The mortality in [4] and in [6] was 80% each time.
On to `N#Cc1cc(C2=NCC(c3cccc(C(F)(F)F)c3F)(C(F)(F)F)C2)ccc1-n1cncn1` (stereo not drawn) [1-19], for which the insecticidal activity in series [1] and in series [3] was 100% in each case. The acaricidal activity rate in series [2] is 100%. In series [6], this molecule displayed a mortality of 90%.
